Consider twelve compounds from PubChem BioAssay (NCI).

Some test systems named below: SF-539 CNS; HCT-15 colon; BT-549 breast; MDA-N; TK-10 renal; HCT-116 colon; SK-MEL-2 melanoma; DU-145 prostate; OVCAR-3 ovarian; UACC-257 melanoma; HL-60(TB) leukemia; COLO 205 colon; MDA-MB-435; KM12 colon; NCI-H460 lung; HT29 colon; CAKI-1 renal; NCI/ADR-RES ovarian; RPMI-8226 leukemia; NCI-H226 lung.
Holding throughout (experiment): growth of human tumour cells (NCI), 48 h

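A five-concentration, 48-hour dose response in 96-well plates underlies each endpoint, interpolated linearly between surrounding concentrations. TGI marks complete inhibition of growth.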

For the compound `CCC(C)C(C(=O)N/N=C1/SCC(=O)N1c1ccccc1)C(=O)N/N=C1/SCC(=O)N1c1ccccc1` (centres undefined), the TGI in the assay with SF-539 CNS was above 100 µM; in the assay on HCT-15 colon, above 100 µM; with BT-549 breast it was above 100 µM; in the assay with MDA-N it was 94.6 µM; with TK-10 renal it was above 100 µM; in the assay with HCT-116 colon, 58.9 µM. Besides, the TGI is 83.1 µM in the assay on SK-MEL-2 melanoma; above 100 µM with DU-145 prostate; above 100 µM in the assay on OVCAR-3 ovarian; above 100 µM with UACC-257 melanoma; above 100 µM with HL-60(TB) leukemia; above 100 µM in the assay with COLO 205 colon. The TGI was 35.9 µM in the assay on MDA-MB-435; 93.9 µM in the assay with KM12 colon; above 100 µM with NCI-H460 lung; above 100 µM in the assay with HT29 colon; above 100 µM with CAKI-1 renal; above 100 µM in the assay on NCI/ADR-RES ovarian.

As to `N#C/C(=C\c1cn(Cc2ccccc2)c2ccccc12)c1nn(-c2ccccc2)c(N)c1C#N`, the TGI is 7.22 µM in the assay on SF-539 CNS; above 100 µM in the assay on HCT-15 colon; 58.3 µM in the assay on BT-549 breast; 88.1 µM in the assay with MDA-N; 35.8 µM in the assay with TK-10 renal; above 100 µM with HCT-116 colon. In addition, the TGI in the assay with SK-MEL-2 melanoma is 16.9 µM; in the assay with DU-145 prostate, 32.2 µM; in the assay with OVCAR-3 ovarian it was 33.7 µM; with UACC-257 melanoma it was 50 µM; in the assay on HL-60(TB) leukemia, above 100 µM; with COLO 205 colon it was 56.2 µM. In addition, the TGI with MDA-MB-435 is 74.6 µM; with KM12 colon, above 100 µM; in the assay on NCI-H460 lung it was 25.9 µM; with HT29 colon, 27.3 µM; with CAKI-1 renal, 47 µM; in the assay on NCI/ADR-RES ovarian it was 49 µM. For the same compound, in the assay on RPMI-8226 leukemia, the TGI is above 100 µM.

As to `c1ccc2c(C3CCN(CCN4CCOCC4)C3)c[nH]c2c1` (centres undefined), the TGI with HCT-15 colon, in the assay on BT-549 breast, with MDA-N, in the assay with TK-10 renal, in the assay with HCT-116 colon and with SK-MEL-2 melanoma was above 100 µM in each case. The TGI with DU-145 prostate, with OVCAR-3 ovarian, with UACC-257 melanoma, with HL-60(TB) leukemia, in the assay on MDA-MB-435 and with KM12 colon was above 100 µM throughout. Further, the TGI in the assay with NCI-H460 lung, in the assay with HT29 colon, in the assay on CAKI-1 renal, in the assay on NCI/ADR-RES ovarian and in the assay with RPMI-8226 leukemia was above 100 µM throughout.

As for `C=C1C(=O)OC2/C=C(\CO)C3OC3C3OC3(C)CC(OC(=O)/C(=C/C)CO)C12` (centres undefined), the TGI in the assay with SF-539 CNS, in the assay with HCT-15 colon, with BT-549 breast, with MDA-N, in the assay with TK-10 renal and in the assay with NCI-H226 lung was above 100 µM throughout. For the same compound, the TGI in the assay on HCT-116 colon, in the assay on SK-MEL-2 melanoma, in the assay with DU-145 prostate, with OVCAR-3 ovarian, in the assay on UACC-257 melanoma and with COLO 205 colon was above 100 µM throughout. The TGI in the assay with MDA-MB-435 is above 100 µM; in the assay with KM12 colon, above 100 µM; in the assay on NCI-H460 lung, above 100 µM; in the assay with HT29 colon, above 100 µM; in the assay on CAKI-1 renal, 77.4 µM; with NCI/ADR-RES ovarian it was above 100 µM. Besides, the TGI in the assay on RPMI-8226 leukemia amounted to 45.7 µM.

Turning to `CC1=NN(C(=O)CC(=O)Nc2ccc(C)cc2)C(=O)C1N=Nc1ccc(C(=O)O)cc1` (centres undefined), the TGI with SF-539 CNS, in the assay with HCT-15 colon, in the assay with BT-549 breast, in the assay with MDA-N, in the assay on TK-10 renal and in the assay with HCT-116 colon was above 100 µM in each case. The TGI in the assay on SK-MEL-2 melanoma, in the assay with DU-145 prostate, in the assay on OVCAR-3 ovarian, in the assay with UACC-257 melanoma, in the assay on HL-60(TB) leukemia and with COLO 205 colon was above 100 µM throughout. Further, the TGI in the assay on MDA-MB-435, with KM12 colon, in the assay with HT29 colon, in the assay with CAKI-1 renal, in the assay with NCI/ADR-RES ovarian and in the assay with RPMI-8226 leukemia was above 100 µM throughout.

For the compound `CCN(CC)CCC(=O)NC1c2ccc(Cl)cc2Oc2c(C)cccc21` (centres undefined), the TGI came to 27.7 µM with SF-539 CNS; 34.6 µM in the assay on HCT-15 colon; 27.1 µM in the assay with BT-549 breast; 32.3 µM in the assay on MDA-N; 27.9 µM in the assay on TK-10 renal; 30.2 µM in the assay on HCT-116 colon. Further, the TGI was 32.9 µM with DU-145 prostate; 28.8 µM in the assay with OVCAR-3 ovarian; 31.6 µM in the assay with UACC-257 melanoma; 41.2 µM with HL-60(TB) leukemia; 40.1 µM in the assay on COLO 205 colon; 28.3 µM in the assay on MDA-MB-435. For the same compound, the TGI was 30.4 µM in the assay on KM12 colon; 31.7 µM with NCI-H460 lung; 28.9 µM with HT29 colon; 39 µM in the assay on NCI/ADR-RES ovarian; 70.3 µM in the assay with RPMI-8226 leukemia.

For the compound `COc1nc(C)nc2sc3c(c12)CCCC3`, the TGI with HCT-15 colon, with BT-549 breast, in the assay with MDA-N, in the assay on TK-10 renal, with NCI-H226 lung and in the assay with HCT-116 colon was above 100 µM each time. In addition, the TGI in the assay on SK-MEL-2 melanoma, in the assay with DU-145 prostate, in the assay on OVCAR-3 ovarian, in the assay on UACC-257 melanoma, in the assay on HL-60(TB) leukemia and in the assay on COLO 205 colon was above 100 µM in each case. The TGI with MDA-MB-435, with KM12 colon, in the assay with NCI-H460 lung, in the assay on HT29 colon, in the assay on CAKI-1 renal and with NCI/ADR-RES ovarian was above 100 µM throughout. In the assay with RPMI-8226 leukemia, this compound came in with a TGI above 100 µM.

For the compound `Cc1cc(C)nc(NS(=O)(=O)c2ccc(Nc3c4ccccc4nc4c(C(=O)NNCCO)cccc34)cc2)n1`, the TGI in the assay on HCT-15 colon, in the assay on BT-549 breast, in the assay with MDA-N, with TK-10 renal, in the assay on SK-MEL-2 melanoma and with DU-145 prostate was above 100 µM throughout. Moreover, the TGI with OVCAR-3 ovarian, in the assay on UACC-257 melanoma, with HL-60(TB) leukemia, in the assay with COLO 205 colon, in the assay with MDA-MB-435 and in the assay with KM12 colon was above 100 µM each time. The TGI in the assay on NCI-H460 lung, in the assay with HT29 colon, in the assay on CAKI-1 renal, in the assay with NCI/ADR-RES ovarian and with RPMI-8226 leukemia was above 100 µM each time.

`Cc1oc2c(c1C)S(=O)(=O)C(C#N)=C(c1ccccc1)N2`: the TGI in the assay with SF-539 CNS, in the assay on HCT-15 colon, in the assay on BT-549 breast, with MDA-N, in the assay with TK-10 renal and in the assay with NCI-H226 lung was above 100 µM in each case. The TGI with SK-MEL-2 melanoma, in the assay with DU-145 prostate, in the assay on OVCAR-3 ovarian, with UACC-257 melanoma, in the assay with COLO 205 colon and in the assay on MDA-MB-435 was above 100 µM in each case. The TGI in the assay with KM12 colon, with NCI-H460 lung, with HT29 colon, in the assay on CAKI-1 renal, with NCI/ADR-RES ovarian and in the assay on RPMI-8226 leukemia was above 100 µM each time.

Consider `CNc1c2cccc(C)c2nc2c(C(=O)NCCN(C)C)cccc12`, for which the TGI with SF-539 CNS stood at 0.245 µM; in the assay on HCT-15 colon, 0.634 µM; in the assay with BT-549 breast, 2.8 µM; in the assay on MDA-N it was 0.328 µM; in the assay on TK-10 renal it was 0.617 µM; in the assay with NCI-H226 lung, 0.847 µM. Moreover, the TGI in the assay on HCT-116 colon is 0.453 µM; in the assay on SK-MEL-2 melanoma, 0.996 µM; in the assay with DU-145 prostate it was 0.684 µM; in the assay with OVCAR-3 ovarian it was 1.05 µM; in the assay on UACC-257 melanoma, 1.24 µM; with COLO 205 colon, 0.278 µM. The TGI turned out to be 0.34 µM in the assay on MDA-MB-435; 1.67 µM with KM12 colon; 0.206 µM in the assay on NCI-H460 lung; 0.138 µM in the assay with HT29 colon; 0.23 µM in the assay with CAKI-1 renal; 1.83 µM in the assay on NCI/ADR-RES ovarian. The TGI in the assay with RPMI-8226 leukemia was determined as 0.57 µM.

Regarding `COc1ccc(OC)c2sc(N3C(=O)/C(=C/c4ccc(Cl)cc4)N=C3c3ccccc3)nc12`, the TGI in the assay on SF-539 CNS, in the assay with HCT-15 colon, in the assay on BT-549 breast, in the assay with MDA-N, with TK-10 renal and in the assay with HCT-116 colon was above 100 µM each time. For the same compound, the TGI with SK-MEL-2 melanoma, with DU-145 prostate, in the assay on OVCAR-3 ovarian, with UACC-257 melanoma, in the assay on HL-60(TB) leukemia and in the assay with COLO 205 colon was above 100 µM throughout. Moreover, the TGI with MDA-MB-435, in the assay on KM12 colon, in the assay with NCI-H460 lung, in the assay on HT29 colon, in the assay with CAKI-1 renal and in the assay with NCI/ADR-RES ovarian was above 100 µM each time. The TGI in the assay on RPMI-8226 leukemia was above 100 µM.

With `CN(C)c1ccc(/C=N\NC(=O)c2ccccc2Nc2ccccc2C(=O)N/N=C/c2ccc(N(C)C)cc2)cc1`, the TGI is 81.9 µM in the assay on SF-539 CNS; above 100 µM in the assay on HCT-15 colon; above 100 µM with BT-549 breast; above 100 µM in the assay on MDA-N; above 100 µM in the assay on TK-10 renal; above 100 µM in the assay on NCI-H226 lung. For the same compound, the TGI in the assay on HCT-116 colon, in the assay on SK-MEL-2 melanoma, in the assay with DU-145 prostate, in the assay with OVCAR-3 ovarian, in the assay with UACC-257 melanoma and in the assay with COLO 205 colon was above 100 µM each time. For the same compound, the TGI with MDA-MB-435, in the assay with KM12 colon, in the assay with NCI-H460 lung, with HT29 colon, in the assay on CAKI-1 renal and in the assay with NCI/ADR-RES ovarian was above 100 µM each time. In the assay on RPMI-8226 leukemia, the TGI is above 100 µM.
